Assay results as given in patent EP0269311A2, “Methods of treating bone diseases by administration of a cysteine proteinase inhibitor” (Merck & Co., Inc., priority 1986, dated 1988).

Columns and labels:
papain = biological target: T1, papain (Carica papaya, UniProt P00784); details: with the disappearance of the thiol group of papain; cited from earlier work
T1 sequence (P00784 134-345): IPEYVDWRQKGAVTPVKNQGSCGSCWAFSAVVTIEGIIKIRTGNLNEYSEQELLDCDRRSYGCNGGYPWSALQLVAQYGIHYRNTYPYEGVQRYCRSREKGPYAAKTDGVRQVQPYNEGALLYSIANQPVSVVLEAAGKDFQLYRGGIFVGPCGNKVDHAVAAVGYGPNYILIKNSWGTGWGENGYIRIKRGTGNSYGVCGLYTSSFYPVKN

cathepsin B = cathepsin B (Homo sapiens, UniProt P07858); details: cited from earlier work
serine proteinases = details: cited from earlier work
serum Ca⁺⁺ [1] = experiment: Rat model of secondary hyperparathyroidism (Ca++ deficient diet), serum Ca++; format: in vivo, Rats; details: intubated
Text: In this model rats are fed a Ca⁺⁺ deficient diet, causing an enhanced release of parathyroid hormone (PTH) and secondary hyperparathyroidism. At this stage most of the serum Ca⁺⁺ is mobilized from bone. To maintain serum calcium levels within the normal range, bone resorption is stimulated by the released parathyroid hormone. This model was used to study the effect of Formula I compound on rats with secondary hyperparathyroidism. Rats (150-200 gr) were kept on a Ca⁺⁺ deficient diet for 7 days. Different doses of Formula I compound were intubated into animals (n=10) and serum Ca⁺⁺ was monitored at 0, 4, 8, 12 and 24 hours.

serum Ca⁺⁺ [2] = experiment: Rat model of humoral hypercalcemia of malignancy (transplanted Rice 500 Leydig cell tumor), serum Ca++; format: in vivo, male Fisher rats; details: for Serum mg % Ca++: 40 mg/kg/day intubated once a day from two days after tumor transplantation
Text: A rat model that closely mimics the human syndrome of Humoral Hypercalcemia of Malignancy was described by Insogna et al, Endocrinology 114, 888-896 (1984). In this model a Rice 500 Leydig cell tumor is transplated in male Fisher rats. […] These findings exactly parallel those in human humoral hypercalcemia of malignancy. The same model was used to study the effect of the formula I compound on lowering serum Ca⁺⁺ levels in rodents with established malignant hypercalcemia. Rats (150-200 gr) were intubated once a day with three different doses of the formula I compound including 10 mg, 25 mg and 80 mg/kg/day as shown in Figure 1. Control animals received no compound. The compound was given on days 10-15 after tumor transplantation when all animals were hypercalcemic. In experiment No. 2 (Table 1), rodents were intubated once a day with 40 mg/kg, of the formula I compound two days after tumor transplantation. These studies were utilized to examine whether the formula I compound could prevent tumor-induced hypercalcemia in these animals which generally appears 8-10 days after transplantation.

metalloproteinases = details: cited from earlier work
cathepsin H = biological target: T2, cathepsin H (Homo sapiens, UniProt P09668); details: cited from earlier work
T2 sequence (P09668 98-335): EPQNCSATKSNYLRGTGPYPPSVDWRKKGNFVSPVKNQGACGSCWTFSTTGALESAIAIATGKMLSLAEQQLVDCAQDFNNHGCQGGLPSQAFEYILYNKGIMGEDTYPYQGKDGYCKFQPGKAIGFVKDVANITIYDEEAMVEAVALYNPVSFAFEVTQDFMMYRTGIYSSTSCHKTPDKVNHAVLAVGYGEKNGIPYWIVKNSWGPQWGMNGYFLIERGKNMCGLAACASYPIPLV

Structure (SMILES): CC(C)C[C@H](NC(=O)[C@H]1O[C@@H]1C(=O)O)C(=O)NCCCCN=C(N)N [Formula I compound, epoxysuccinyl-leucylamido (4-guanidino)butane]
- inhibition of papain (papain): inhibit
- inhibition of cathepsin B (cathepsin B): inhibit
- effect on serine proteinases (serine proteinases): unaffected
- Serum mg % Ca++ (serum Ca⁺⁺ [1]; 10 mg, 0 hours): 11.5 ± 0.5 mg %
- Serum mg % Ca++ (serum Ca⁺⁺ [1]; 10 mg, 4 hours): 10.6 ± 0.4 mg %
- Serum mg % Ca++ (serum Ca⁺⁺ [1]; 10 mg, 8 hours): 10.4 ± 0.5 mg %
- Serum mg % Ca++ (serum Ca⁺⁺ [1]; 10 mg, 12 hours): 10.2 ± 0.4 mg %
- Serum mg % Ca++ (serum Ca⁺⁺ [1]; 10 mg, 24 hours): 11.5 ± 0.6 mg %
- Serum mg % Ca++ (serum Ca⁺⁺ [1]; 20 mg, 0 hours): 11.3 ± 0.4 mg %
- Serum mg % Ca++ (serum Ca⁺⁺ [1]; 20 mg, 4 hours): 10.2 ± 0.3 mg %
- Serum mg % Ca++ (serum Ca⁺⁺ [1]; 20 mg, 8 hours): 9.7 ± 0.4 mg %
- Serum mg % Ca++ (serum Ca⁺⁺ [1]; 20 mg, 12 hours): 9.5 ± 0.3 mg %
- Serum mg % Ca++ (serum Ca⁺⁺ [1]; 20 mg, 24 hours): 12.0 ± 0.3 mg %
- Serum mg % Ca++ (serum Ca⁺⁺ [1]; 60 mg, 0 hours): 11.7 ± 0.6 mg %
- Serum mg % Ca++ (serum Ca⁺⁺ [1]; 60 mg, 4 hours): 9.8 ± 0.4 mg %
- Serum mg % Ca++ (serum Ca⁺⁺ [1]; 60 mg, 8 hours): 9.5 ± 0.3 mg %
- Serum mg % Ca++ (serum Ca⁺⁺ [1]; 60 mg, 12 hours): 8.9 ± 0.4 mg %
- Serum mg % Ca++ (serum Ca⁺⁺ [1]; 60 mg, 24 hours): 12.7 ± 0.4 mg %
- drop of serum Ca⁺⁺ (serum Ca⁺⁺ [1]; most effective dose 40 mg/kg, in 12 hours): 28.8%
- Serum mg % Ca++ (serum Ca⁺⁺ [2]; day 2): 10.5 ± 0.3 mg %
- Serum mg % Ca++ (serum Ca⁺⁺ [2]; day 4): 10.1 ± 0.4 mg %
- Serum mg % Ca++ (serum Ca⁺⁺ [2]; day 6): 10.2 ± 0.2 mg %
- Serum mg % Ca++ (serum Ca⁺⁺ [2]; day 8): 10.3 ± 0.3 mg %
- Serum mg % Ca++ (serum Ca⁺⁺ [2]; day 10): 9.8 ± 0.4 mg %
- Serum mg % Ca++ (serum Ca⁺⁺ [2]; day 11): 10.3 ± 0.4 mg %
- Serum mg % Ca++ (serum Ca⁺⁺ [2]; day 12): 10.1 ± 0.3 mg %
- Serum mg % Ca++ (serum Ca⁺⁺ [2]; day 13): 10.4 ± 0.4 mg %
- Serum mg % Ca++ (serum Ca⁺⁺ [2]; day 14): 10.5 ± 0.3 mg %
- Serum mg % Ca++ (serum Ca⁺⁺ [2]; day 15): 10.6 ± 0.4 mg %
- tumor induced hypercalcemia (established) (serum Ca⁺⁺ [2]; given orally, 10 mg, 25 mg and 80 mg/kg/day on days 10-15 after tumor transplantation (Figure 1)): block
- tumor induced hypercalcemia (prevention) (serum Ca⁺⁺ [2]; given orally, 40 mg/kg once a day from two days after tumor transplantation (Table I)): can prevent
- effect on metalloproteinases (metalloproteinases): unaffected
- inhibition of cathepsin H (cathepsin H): inhibit
